Data: PMC3828267 (PLoS ONE, 2013)
Values joined by “and” are separate entries in the source; they are usually repeats but may differ in a detail not shown here. Equal entries are not always repeated. Where two headings read alike, the source gives them in different places.

Legend:
human α4β2 AChRs [1] = target: T1, human α4β2 AChRs (Homo sapiens, UniProt P17787+P43681); assay: Acute activation, FLEXStation membrane potential dye, α4β2 cell line; format: cell-based; conditions: for Agonist type (full or partial): α4β2, mixture of stoichiometries
T1 construct: expressed in transfected cells
T1 sequence (P43681 29-627 limits assumed): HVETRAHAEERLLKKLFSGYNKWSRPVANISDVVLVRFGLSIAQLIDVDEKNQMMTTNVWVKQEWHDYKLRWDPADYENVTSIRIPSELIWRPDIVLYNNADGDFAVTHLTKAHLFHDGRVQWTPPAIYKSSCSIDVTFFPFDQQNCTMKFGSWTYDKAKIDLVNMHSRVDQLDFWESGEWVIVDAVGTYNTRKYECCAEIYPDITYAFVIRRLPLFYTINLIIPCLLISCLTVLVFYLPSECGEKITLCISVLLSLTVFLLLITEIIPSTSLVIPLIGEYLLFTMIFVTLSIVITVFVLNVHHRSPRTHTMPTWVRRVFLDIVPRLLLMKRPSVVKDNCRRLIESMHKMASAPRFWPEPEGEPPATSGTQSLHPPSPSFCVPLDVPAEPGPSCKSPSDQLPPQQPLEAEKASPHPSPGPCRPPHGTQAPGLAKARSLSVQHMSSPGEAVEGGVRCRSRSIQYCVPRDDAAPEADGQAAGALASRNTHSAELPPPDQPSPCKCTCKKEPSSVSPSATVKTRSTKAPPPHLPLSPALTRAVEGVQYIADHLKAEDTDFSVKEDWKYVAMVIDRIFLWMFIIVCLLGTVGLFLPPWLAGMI
T1 sequence (P17787 26-502): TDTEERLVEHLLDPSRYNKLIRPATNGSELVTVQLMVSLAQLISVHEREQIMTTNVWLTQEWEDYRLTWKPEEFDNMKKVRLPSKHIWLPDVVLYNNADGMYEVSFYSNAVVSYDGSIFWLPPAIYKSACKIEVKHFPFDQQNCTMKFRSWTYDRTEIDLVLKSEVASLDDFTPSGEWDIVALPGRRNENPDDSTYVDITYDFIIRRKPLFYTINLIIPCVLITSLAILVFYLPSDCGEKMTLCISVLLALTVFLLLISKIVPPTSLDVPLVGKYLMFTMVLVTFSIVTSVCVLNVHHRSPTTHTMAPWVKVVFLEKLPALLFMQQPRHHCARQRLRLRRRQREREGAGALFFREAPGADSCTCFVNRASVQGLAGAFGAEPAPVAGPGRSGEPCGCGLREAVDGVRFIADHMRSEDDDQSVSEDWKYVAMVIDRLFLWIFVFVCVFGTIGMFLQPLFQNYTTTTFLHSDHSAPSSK
Method: (§1) The parental cell line used for transfections was tsA201, derived from the human embryonic kidney cell line (HEK) 293 [33]. […] The cell line permanently expressing α3β4 AChRs has been described, [34]. A stable cell line expressing functional α7 AChRs was prepared by initially transfecting the tsA201 cell line with cDNA for α7 and subsequently transfecting with cDNA for the AChR-selective chaperone, human RIC-3.
(§2) Responses to nicotinic agonists were determined using a FLEXStation microplate fluorometer (Molecular Devices, Sunnyvale, CA) as described. For cell lines expressing α4β2 and α3β4 AChRs, the cells were plated at 10^5 cells/ml (100 µl/well) in black-walled clear-bottom 96 well plates (Costar, Fisher Scientific, Pittsbugh, PA), and incubated for 48 hours prior to assaying responses to various nicotinic agonists. The α7/RIC-3 expressing cells were plated at 5×10^5/ml in black-walled clear-bottom 96 well BioCoat plates (BD Biosciences, Franklin Lakes, NJ) in the continued presence of VPA and PBA, with the addition of 5% human AB serum (Pel-Freez Biologicals, Rogers, AR) to further increase expression of α7 [35]. The cells were then grown for 24 hours prior to the assay.
(§3) To measure responses to various nicotinic agonists, 100 µl of a fluorescent dye which is sensitive to changes in membrane potential (Molecular Devices) was added to the wells. The dye was prepared according to the manufacturer’s instructions, with the addition of atropine (0.5 µM) to block muscarinic responses. The plates were then incubated at 37°C for one hour prior to the assay. Serial dilutions of agonists were then prepared in Hanks Balanced Salt Solution (HBSS) in V-shaped 96-well plates (Fisher Scientific Co, Pittsburgh, PA). Fluorescent responses were measured in the FLEX Station at 25°C, with an excitation wavelength of 530 nm and an emission wavelength of 565 nm. Various agonists (50 µl) were added after the first 20 seconds and responses were followed for 60–120 seconds.
(§4) Data were graphed using GraphPad Prism software. Non-linear models (sigmoidal dose-response with variable slope or two site competition) were used to fit the concentration response curves. The EC50 and IC50 were calculated from the curves. Kaleidagraph software was used to determine Hill slopes and standard errors of the EC50 and IC50.

α3β4 AChRs [2] = target: T2, α3β4 AChRs (Homo sapiens, UniProt P30926+P32297); assay: Acute activation, FLEXStation membrane potential dye, α3β4 cell line; format: cell-based
T2 construct: expressed in transfected cells
T2 sequence (P32297 32-505): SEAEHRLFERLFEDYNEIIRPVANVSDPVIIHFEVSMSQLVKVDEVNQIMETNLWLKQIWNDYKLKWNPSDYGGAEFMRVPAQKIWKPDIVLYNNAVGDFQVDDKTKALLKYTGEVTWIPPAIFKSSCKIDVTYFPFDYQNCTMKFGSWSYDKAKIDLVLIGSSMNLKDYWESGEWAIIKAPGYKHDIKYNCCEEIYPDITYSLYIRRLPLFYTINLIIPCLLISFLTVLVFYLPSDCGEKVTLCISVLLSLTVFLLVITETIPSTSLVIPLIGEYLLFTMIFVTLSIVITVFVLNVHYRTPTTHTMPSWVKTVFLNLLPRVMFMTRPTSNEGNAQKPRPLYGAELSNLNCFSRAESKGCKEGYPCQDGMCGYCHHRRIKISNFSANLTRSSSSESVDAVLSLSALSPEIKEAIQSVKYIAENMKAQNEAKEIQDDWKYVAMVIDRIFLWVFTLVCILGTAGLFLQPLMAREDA
T2 sequence (P30926 22-498): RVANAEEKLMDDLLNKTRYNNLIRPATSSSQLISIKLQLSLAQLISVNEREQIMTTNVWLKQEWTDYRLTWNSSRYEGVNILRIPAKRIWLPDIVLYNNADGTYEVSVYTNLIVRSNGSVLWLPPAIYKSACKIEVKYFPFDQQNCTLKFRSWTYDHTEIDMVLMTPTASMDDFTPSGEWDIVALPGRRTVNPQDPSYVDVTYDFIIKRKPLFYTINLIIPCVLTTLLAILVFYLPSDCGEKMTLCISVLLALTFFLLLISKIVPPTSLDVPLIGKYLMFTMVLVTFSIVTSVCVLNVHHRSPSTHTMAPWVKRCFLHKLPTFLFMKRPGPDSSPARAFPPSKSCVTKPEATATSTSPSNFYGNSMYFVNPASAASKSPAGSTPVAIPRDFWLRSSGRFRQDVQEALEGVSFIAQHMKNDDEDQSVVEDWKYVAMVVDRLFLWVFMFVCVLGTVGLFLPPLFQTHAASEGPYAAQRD
Method: as §1, §2, §3, §4

human α4β2 AChRs [3] = target: T1, human α4β2 AChRs; assay: Chronic desensitization (16 h agonist, then ACh response) and calculated smoldering activation, α4β2 cell line; format: cell-based; conditions: for Emax at 1 µM: 1 µM varenicline, read-out: Smoldering activation, % of the maximum response; for AChRs desensitized: varenicline 1 µM; for Extent of desensitization of α4β2 AChRs to ACh: prolonged exposure, up to high concentrations
Method: (§5) To measure desensitization, plates were prepared as for agonist assays. Sixteen hours prior to the assay, serial dilutions of agonists, prepared in regular growth medium, were added to the plates. One hour before the assay, the membrane potential-sensitive fluorescent dye with 0.5 µM atropine was added to the wells. […] Each data point represents the average of peak values for individual dose response curves from 4–8 wells.
as §4
(§6) Responses for the three different AChRs are shown in Figures 3, 4, 5, 6, along with the dose response curves for activation (the same as shown in Figure 2). The range of concentrations at which both sustained activation and desensitization can occur (“smoldering activation”) was calculated by multiplying the acute response to agonists at each concentration by the fractional response remaining after desensitization.

α3β4 AChRs [4] = target: T2, α3β4 AChRs; assay: Chronic desensitization (16 h agonist, then ACh response) and calculated smoldering activation, α3β4 cell line; format: cell-based; conditions: for Hill (desensitization) / Intercept of Activation and Desensitization Curves: α3β4: 1.0 mM ACh
Method: as §5, §4, §6

[5] = cited from earlier work
α7 AChRs [6] = target: T3, α7 AChRs (Homo sapiens, UniProt P36544); assay: Acute activation, FLEXStation membrane potential dye, α7/RIC-3 cell line; format: cell-based; parameters: expressed in transfected cells; grown in VPA and PBA
T3 sequence (P36544 23-502): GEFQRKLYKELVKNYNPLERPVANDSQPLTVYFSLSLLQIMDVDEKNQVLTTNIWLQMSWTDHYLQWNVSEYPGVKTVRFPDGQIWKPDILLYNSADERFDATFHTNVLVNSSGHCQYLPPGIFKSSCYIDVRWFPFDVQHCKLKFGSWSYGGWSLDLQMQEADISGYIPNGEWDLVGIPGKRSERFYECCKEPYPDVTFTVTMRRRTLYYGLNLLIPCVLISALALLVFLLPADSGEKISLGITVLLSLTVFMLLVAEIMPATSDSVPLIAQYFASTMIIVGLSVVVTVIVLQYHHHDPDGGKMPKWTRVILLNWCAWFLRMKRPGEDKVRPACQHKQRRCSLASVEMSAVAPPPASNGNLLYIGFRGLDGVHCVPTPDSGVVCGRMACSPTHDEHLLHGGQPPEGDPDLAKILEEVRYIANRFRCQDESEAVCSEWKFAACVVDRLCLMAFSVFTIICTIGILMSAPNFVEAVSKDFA
Method: as §1, §2, §3, §4

α7 AChRs [7] = target: T3, α7 AChRs; assay: Chronic desensitization (16 h agonist, then ACh response) and calculated smoldering activation, α7 cell line; format: cell-based; parameters: expressed in transfected cells; grown in VPA and PBA; conditions: for Hill (desensitization) / Intercept of Activation and Desensitization Curves: α7: 10 µM ACh
Method: as §5, §4, §6

[8] = cited from earlier work; remark: listed apart in the source
(α4β2)2α4 AChRs = conditions: (α4β2)2α4, concatenated AChRs in Xenopus oocytes; cited from earlier work
(α4β2)2β2 AChRs = target: T4, (α4β2)2β2 AChRs (Homo sapiens, UniProt P17787+P43681); conditions: (α4β2)2β2, concatenated AChRs in Xenopus oocytes; cited from earlier work
T4 construct: expressed in transfected cells
T4 sequence (P43681 29-627 limits assumed): as the sequence (P43681 29-627 limits assumed) above
T4 sequence (P17787 26-502): as the sequence (P17787 26-502) above

[9] = α4β2, higher sensitivity component or monophasic curve
[10] = α4β2, lower sensitivity component
[11] = α4β2: 3 µM ACh ((α4β2)2β2 stoichiometry), centre of smoldering activation
[12] = α4β2: 3 µM ACh, first component
[13] = α4β2: 100 µM ACh (both stoichiometries)
[14] = α4β2: 100 µM ACh, first component

Row | SMILES | Agonist type (full or partial) (human α4β2 AChRs [1]) | Hill (activation) (human α4β2 AChRs [1]; [9]) | Hill (activation) (human α4β2 AChRs [1]; [10]) | Hill (activation) (α3β4 AChRs [2]; α3β4) | Extent of desensitization of α4β2 AChRs to ACh (human α4β2 AChRs [3]) | Intercept of Activation and Desensitization Curves (human α4β2 AChRs [3]; [11]) [µM] | Hill (desensitization) (human α4β2 AChRs [3]; [12]) | Intercept of Activation and Desensitization Curves (human α4β2 AChRs [3]; [13]) [µM] | Hill (desensitization) (human α4β2 AChRs [3]; [14]) | Hill (desensitization) (α3β4 AChRs [4]) | Intercept of Activation and Desensitization Curves (α3β4 AChRs [4]) [µM] | Hill (activation) (α7 AChRs [6]; α7) | Hill (desensitization) (α7 AChRs [7]) | Intercept of Activation and Desensitization Curves (α7 AChRs [7]) [µM] | further results
1 | c1cnc2cc3c(cc2n1)[C@@H]1CNC[C@H]3C1 [Varenicline, varenicline] | partial agonists | 1.1 | 1.8 | 1.4 | fully desensitizing | 0.16 | −0.6 | 0.93 | −1.0 | −1.1 | 2.1 | 3.5 | −2.6 | 0.4 | Emax at 1 µM (human α4β2 AChRs [3]; (α4β2)2α4 AChRs): 23%; AChRs desensitized (human α4β2 AChRs [3]; (α4β2)2α4 AChRs): ~50%; Emax at 1 µM (human α4β2 AChRs [3]; (α4β2)2β2 AChRs): 4.3%; AChRs desensitized (human α4β2 AChRs [3]; (α4β2)2β2 AChRs): > 90%; Peak levels ([5]; after 14 days on standard dose of 1 mg twice daily): 0.48 µM; Peak blood levels ([5]; humans, after a 1 mg dose): 0.1 µM; Levels reached in patients ([5]; patients on therapeutic doses): 400 nM
2 | CC(=O)OCC[N+](C)(C)C [ACh, acetylcholine] | full agonists | 1.5 | 1.3 | 1.8 |  |  |  |  |  |  |  | 2.4 |  |  | Amplitude of response to saturating concentration (human α4β2 AChRs [1]; α4β2, saturating ACh (300 µM)): 167,000+/−18,000 relative fluorescence units; Amplitude of response to saturating concentration (α3β4 AChRs [2]; α3β4, saturating ACh (1.0 mM)): 161,000+/−14,000 relative fluorescence units; Time to maximum response after agonist application (α7 AChRs [6]; α7, saturating ACh): ≤ 5 s; Amplitude of response to saturating concentration (α7 AChRs [6]; α7, saturating ACh (10 µM)): 54,000+/−3000 relative fluorescence units and 54,00+/−3000 relative fluorescence units
3 | CN1CCC[C@H]1c1cccnc1 [Nicotine, nicotine] | full agonists | 1.8 | 2.5 | 1.1 |  | 0.13 | −1.0 | 1.82 | −1.2 | −0.9 | 8.7 | 1.7 | −3.2 | 1.7 | Emax at 0.1 µM (human α4β2 AChRs [3]; read-out: Calculated smoldering activation, % of maximum response, (α4β2)2α4 stoichiometry, 0.1 µM nicotine): 18%; Emax at 0.1 µM (human α4β2 AChRs [3]; read-out: Calculated smoldering activation, % of maximum response, (α4β2)2β2 stoichiometry, 0.1 µM nicotine): 6%; Emax at […] (human α4β2 AChRs [3]; read-out: Calculated smoldering response, % of maximum response, (α4β2)2α4 stoichiometry, nicotine concentration of […]): 54%; Concentrations found in the blood of smokers [8]: 58 to 340 nM
4 | O=c1cccc2n1C[C@@H]1CNC[C@H]2C1 [Cytisine, cytisine] | partial agonist | 0.9 |  | 1.3 | fully desensitizing | 0.45 | −1.1 | 0.74 | −1.2 | −0.6 | 4.1 | 4.3 | −1.4 | 2.1 | EC50 (human α4β2 AChRs [1]; Activation EC50, α4β2 cell line, mixed stoichiometries, higher sensitivity component where two-site fit, else monophasic): 5.5 ± 0.8 µM; Efficacy (%) (relative to ACh) (human α4β2 AChRs [1]; α4β2): 34%; EC50 (α3β4 AChRs [2]): 7.5 ± 1.1 µM; Agonist type (full or partial) (α3β4 AChRs [2]; α3β4): full agonist; Efficacy (%) (relative to ACh) (α3β4 AChRs [2]; α3β4): 100%; IC50 (human α4β2 AChRs [3]; Desensitization IC50, α4β2: 3 µM ACh, overnight (16 h) agonist, first (more sensitive) component): 0.001 ± 0.0005 µM; IC50 (human α4β2 AChRs [3]; Desensitization IC50, α4β2: 3 µM ACh, overnight agonist, second component): 0.25 ± 0.1 µM; IC50 (human α4β2 AChRs [3]; Desensitization IC50, α4β2: 100 µM ACh, overnight (16 h) agonist, first (more sensitive) component): 0.003 ± 0.0003 µM; IC50 (human α4β2 AChRs [3]; Desensitization IC50, α4β2: 100 µM ACh, overnight agonist, second component): 20 µM; Concentration from which the desensitization dose response curve shows a plateau (human α4β2 AChRs [3]; α4β2, assayed with 100 µM ACh): above 10 nM; Hill (desensitization) (human α4β2 AChRs [3]; α4β2: 3 µM ACh, second component): −1.1; Hill (desensitization) (human α4β2 AChRs [3]; α4β2: 100 µM ACh, second component): −0.8; IC50 (α3β4 AChRs [4]): 1.3 ± 0.5 µM; Agonist type ((α4β2)2α4 AChRs): partial agonist; Agonist type ((α4β2)2β2 AChRs): inactive; EC50 (α7 AChRs [6]): 2 ± 0.06 µM; Agonist type (full or partial) (α7 AChRs [6]; α7): full agonist; Efficacy (%) (relative to ACh) (α7 AChRs [6]; α7): 100%; IC50 (α7 AChRs [7]): 4.2 ± 0.74 µM
